Like-named read-outs stand apart in the source and are kept apart here.
Experiments:
[1] = logD distribution coefficient
[2] = target: T1, beta 1 (h) (Homo sapiens, UniProt P08588); assay: biochemical; format: binding; settings: for inhibition at 10 µM: read-out: % inhibition beta 1 (h)
T1 construct: CEREP

[3] = target: hCB2R (Homo sapiens, UniProt P34972); assay: cell-based; format: cell-based; design: expressed in transfected cells; host or cells: Flp-In-293 (Invitrogen #R750-07), pcDNA5/FRT
[4] = target: T2, PPARgamma (h) (Homo sapiens, UniProt P37231); assay: CEREP panel; format: binding; settings: for inhibition at 10 µM: read-out: % inhibition PPARgamma (h)
T2 construct: CEREP (contract assay)
T2 sequence (P37231 1-505): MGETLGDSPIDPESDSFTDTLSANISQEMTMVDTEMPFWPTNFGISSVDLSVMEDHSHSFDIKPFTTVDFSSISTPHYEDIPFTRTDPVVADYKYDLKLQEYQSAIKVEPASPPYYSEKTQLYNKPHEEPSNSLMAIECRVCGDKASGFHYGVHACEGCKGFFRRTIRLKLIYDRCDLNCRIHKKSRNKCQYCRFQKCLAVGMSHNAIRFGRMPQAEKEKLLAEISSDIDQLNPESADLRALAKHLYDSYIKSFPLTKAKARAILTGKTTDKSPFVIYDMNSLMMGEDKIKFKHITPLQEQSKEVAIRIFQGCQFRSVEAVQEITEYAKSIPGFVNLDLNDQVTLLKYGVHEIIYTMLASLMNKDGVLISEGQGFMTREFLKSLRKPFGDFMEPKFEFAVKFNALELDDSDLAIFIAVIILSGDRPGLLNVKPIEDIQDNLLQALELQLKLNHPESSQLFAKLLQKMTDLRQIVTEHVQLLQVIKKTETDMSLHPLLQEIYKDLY

[5] = target: T3, alpha 2A (h) (Homo sapiens, UniProt P08913); assay: CEREP panel; format: binding; settings: for inhibition at 10 µM: read-out: % inhibition alpha 2A (h)
T3 construct: CEREP
T3 sequence (P08913 1-465): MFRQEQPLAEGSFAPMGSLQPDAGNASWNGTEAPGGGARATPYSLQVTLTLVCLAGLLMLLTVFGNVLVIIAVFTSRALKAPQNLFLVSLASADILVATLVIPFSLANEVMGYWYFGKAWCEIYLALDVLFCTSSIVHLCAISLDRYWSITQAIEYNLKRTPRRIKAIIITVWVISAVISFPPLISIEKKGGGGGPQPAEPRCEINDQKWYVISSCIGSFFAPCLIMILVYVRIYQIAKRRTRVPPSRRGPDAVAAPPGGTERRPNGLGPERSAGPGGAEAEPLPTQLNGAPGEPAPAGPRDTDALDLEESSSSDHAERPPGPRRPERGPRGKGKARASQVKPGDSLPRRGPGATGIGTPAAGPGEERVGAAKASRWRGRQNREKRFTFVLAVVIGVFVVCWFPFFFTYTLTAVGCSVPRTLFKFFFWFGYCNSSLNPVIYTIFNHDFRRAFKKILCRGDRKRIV

[6] = target: T4, MT3 (ML2) (Mesocricetus auratus, UniProt A0ABM2YAB8); assay: CEREP panel; format: binding; settings: for % inhibition MT3 (ML2): 10 µM; for inhibition at 10 µM: read-out: % inhibition MT3 (ML2)
T4 construct: CEREP (contract assay)
T4 sequence (A0ABM2YAB8 1-231): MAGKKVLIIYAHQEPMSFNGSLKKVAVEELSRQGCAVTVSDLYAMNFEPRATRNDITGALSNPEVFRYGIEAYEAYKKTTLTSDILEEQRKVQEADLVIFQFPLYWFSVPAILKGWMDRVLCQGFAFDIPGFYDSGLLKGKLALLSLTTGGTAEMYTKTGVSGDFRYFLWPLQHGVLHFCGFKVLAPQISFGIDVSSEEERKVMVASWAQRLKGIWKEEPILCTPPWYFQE

[7] = target: mouse P-gp (Mus musculus, UniProt P21447); settings: efflux ratio
[8] = target: T5, hABHD12 (Homo sapiens, UniProt Q8N2K0); assay: ABHD12 activity; format: biochemical; settings: for ABHD12 % inhibition: single point
T5 construct: expressed in transfected cells
T5 sequence (Q8N2K0 1-398): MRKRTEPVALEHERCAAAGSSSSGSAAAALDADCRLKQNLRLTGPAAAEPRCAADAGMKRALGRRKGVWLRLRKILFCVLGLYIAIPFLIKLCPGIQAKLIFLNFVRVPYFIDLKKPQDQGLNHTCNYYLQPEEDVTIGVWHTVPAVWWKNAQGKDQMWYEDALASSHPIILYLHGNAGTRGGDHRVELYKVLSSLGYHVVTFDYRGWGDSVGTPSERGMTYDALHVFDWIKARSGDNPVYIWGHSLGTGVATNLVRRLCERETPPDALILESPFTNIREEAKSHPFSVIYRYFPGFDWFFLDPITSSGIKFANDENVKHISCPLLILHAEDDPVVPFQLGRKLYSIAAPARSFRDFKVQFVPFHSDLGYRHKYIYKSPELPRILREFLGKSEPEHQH
Excerpt: HEK293T cells were obtained from American Type Culture Collection (ATCC, Manassas, VA, USA). Lipofectamine 2000 was obtained from Life Technologies (Carlsbad, CA, USA) and geneticin from InvivoGen. Cell culture medium, FBS, and cell culture supplements were from Invitrogen (Carlsbad, CA, USA). pCMV6-AC-hABHD6 and pCMV6-XL4-hABHD12 were a kind gift from Prof Jarmo T. Laitinen. hABHD12 sequence was subsequently inserted in a pcDNA3.1 plasmid in order to generate a stable cell line. The effect of CB2R ligands on ABHD6 and ABHD12 hydrolytic activity was determined using cell homogenate from hABHD6 and hABHD12 overexpressing HEK293T cells (40 μg total protein per condition). Samples were pre-incubated with the compounds (10 μM in the screening assay and concentrations in the range 1 nM—50 μM for the dose-response curves) in […] (pH=7.6) buffer containing 0.1%(w/v) BSA. DMSO was used as vehicle control and WWL70 10 μM or THL 20 μM as positive controls. [^3H]-2-OG (10 μM final concentration) was added and after incubation of 5 min at 37 °C, the reaction was stopped by the addition of 400 μl of ice-cold CHCl3:MeOH (1:1). The samples were vortex and centrifuged (16,100g 10 min 4 °C). Aliquots (200 μl) of the aqueous phase were assayed for tritium content by liquid scintillation spectroscopy. The values obtained for each measurement were corrected for non-specific hydrolysis (non-ABHD6 mediated) by subtracting the signal obtained in the hydrolysis of [^3H]- 2-OG by non-transfected HEK293T.

[9] = read-out: ABHD12 IC50 (95% CI), full dose-response
[10] = AtT20; read-out: Emax ± SEM GIRK hCB2R

T1 sequence (P08588 whole entry): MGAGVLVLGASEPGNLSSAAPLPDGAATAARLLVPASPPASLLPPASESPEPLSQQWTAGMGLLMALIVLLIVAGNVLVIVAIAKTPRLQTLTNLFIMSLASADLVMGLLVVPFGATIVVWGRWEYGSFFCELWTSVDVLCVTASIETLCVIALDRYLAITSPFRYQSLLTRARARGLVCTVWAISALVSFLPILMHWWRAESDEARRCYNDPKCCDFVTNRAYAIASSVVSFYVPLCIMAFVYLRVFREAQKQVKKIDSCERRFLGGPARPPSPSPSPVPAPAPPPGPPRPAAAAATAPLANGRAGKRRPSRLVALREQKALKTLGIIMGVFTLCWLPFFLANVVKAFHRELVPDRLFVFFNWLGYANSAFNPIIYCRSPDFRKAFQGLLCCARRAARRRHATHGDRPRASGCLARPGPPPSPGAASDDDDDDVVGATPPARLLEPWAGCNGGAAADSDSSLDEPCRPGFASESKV
Sequence of mouse P-gp (P21447 whole entry): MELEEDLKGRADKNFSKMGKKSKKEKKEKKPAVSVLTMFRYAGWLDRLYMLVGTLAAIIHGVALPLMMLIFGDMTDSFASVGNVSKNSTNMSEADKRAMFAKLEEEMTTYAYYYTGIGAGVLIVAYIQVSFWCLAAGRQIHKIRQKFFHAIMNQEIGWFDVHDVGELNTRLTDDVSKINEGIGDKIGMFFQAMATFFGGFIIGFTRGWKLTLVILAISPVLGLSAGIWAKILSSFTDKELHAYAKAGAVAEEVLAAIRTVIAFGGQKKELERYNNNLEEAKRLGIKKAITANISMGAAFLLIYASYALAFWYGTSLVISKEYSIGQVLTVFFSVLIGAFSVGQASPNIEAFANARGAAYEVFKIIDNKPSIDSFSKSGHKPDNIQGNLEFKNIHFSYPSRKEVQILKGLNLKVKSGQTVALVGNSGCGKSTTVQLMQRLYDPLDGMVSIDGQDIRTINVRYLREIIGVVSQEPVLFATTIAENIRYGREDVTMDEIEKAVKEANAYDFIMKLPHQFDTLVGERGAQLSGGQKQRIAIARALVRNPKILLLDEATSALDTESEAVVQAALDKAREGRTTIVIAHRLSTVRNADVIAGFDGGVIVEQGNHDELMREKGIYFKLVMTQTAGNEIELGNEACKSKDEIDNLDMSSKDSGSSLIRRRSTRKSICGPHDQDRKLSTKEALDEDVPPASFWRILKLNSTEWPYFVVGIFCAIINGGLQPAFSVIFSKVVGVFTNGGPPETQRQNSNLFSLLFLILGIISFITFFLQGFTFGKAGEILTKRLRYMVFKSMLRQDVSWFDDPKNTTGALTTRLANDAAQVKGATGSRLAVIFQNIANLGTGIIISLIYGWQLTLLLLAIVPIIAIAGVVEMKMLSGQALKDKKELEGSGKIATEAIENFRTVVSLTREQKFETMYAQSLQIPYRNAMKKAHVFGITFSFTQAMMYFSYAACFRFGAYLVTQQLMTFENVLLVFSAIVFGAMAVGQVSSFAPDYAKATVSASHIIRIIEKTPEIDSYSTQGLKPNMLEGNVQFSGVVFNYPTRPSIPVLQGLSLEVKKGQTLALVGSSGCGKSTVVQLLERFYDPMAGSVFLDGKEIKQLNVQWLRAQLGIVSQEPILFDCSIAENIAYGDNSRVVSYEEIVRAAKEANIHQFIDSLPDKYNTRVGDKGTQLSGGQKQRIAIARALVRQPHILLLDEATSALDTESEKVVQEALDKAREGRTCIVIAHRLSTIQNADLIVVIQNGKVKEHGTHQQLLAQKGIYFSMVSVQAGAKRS
Sequence of hCB2R (P34972 whole entry): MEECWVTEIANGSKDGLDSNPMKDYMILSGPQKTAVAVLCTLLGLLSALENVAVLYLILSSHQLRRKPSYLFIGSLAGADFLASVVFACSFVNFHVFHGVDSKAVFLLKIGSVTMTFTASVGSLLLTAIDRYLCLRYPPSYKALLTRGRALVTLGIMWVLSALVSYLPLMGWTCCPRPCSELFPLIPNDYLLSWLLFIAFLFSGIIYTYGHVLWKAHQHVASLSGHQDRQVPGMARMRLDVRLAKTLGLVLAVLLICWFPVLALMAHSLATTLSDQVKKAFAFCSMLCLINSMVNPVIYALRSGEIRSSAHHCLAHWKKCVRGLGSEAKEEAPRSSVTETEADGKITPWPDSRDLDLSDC

Row | Compound | % inhibition MT3 (ML2) [6] [%] | % inhibition beta 1 (h) ([2]; 10 µM) [%] | P-gp (ER) mouse [7] | % inhibition PPARgamma (h) ([4]; 10 µM) [%] | % inhibition alpha 2A (h) ([5]; 10 µM) [%] | ABHD12 % inhibition ([8]; 10 5 µM [sic]) [%] | logD ([1]; distribution coefficient) | pEC50 ± SEM GIRK hCB2R [3] | further results
1 | CCCCCCC(C)(C)c1cc(OC)c([C@@H]2C=C(CO)[C@@H]3C[C@H]2C3(C)C)c(OC)c1 [HU308] | – | – | – | – | – | – | – | – | logD [1]: 4.29; inhibition at 10 µM [2]: -11%; Emax ([3]; AtT20, read-out: Emax ± SEM GIRK hCB2R): 82 ± 6%; inhibition at 10 µM [4]: 14%; inhibition at 10 µM [5]: -6%
2 | CCCn1c(C)c(C(=O)c2cccc3ccccc23)c2ccccc21 [JWH015] | 49 | 7 | 1.5 | 67 | 1 | – | – | – | –
3 | Cc1c(C(=O)NN2CCCCC2)nn(-c2ccc(Cl)cc2Cl)c1-c1ccc(I)cc1 [AM251] | – | 25 | – | 55 | 30 | – | – | – | IC50 [8, 9]: 1600 nM
4 | CCCCCCC(C)(C)c1cc(OC)c(C2=C[C@H]3CC[C@]2(CO)C3(C)C)c(OC)c1 [HU910] | – | -4 | 3.0 | 17 | 7 | < 25 | – | – | Emax ± SEM GIRK hCB2R ([3]; normalized to CP55940): 74 ± 2%
5 | CCCC(C)(C)c1ccc2c(c1)OC(C)(C)[C@@H]1CC=C(C)C[C@@H]21 [JWH133] | – | -7 | 1.7 | -5 | -18 | – | > 3 | < 5 | Emax ± SEM GIRK hCB2R [3]: 31 ± 12
6 | CN1CCCCC1Cn1cc(C(=O)c2cc([N+](=O)[O-])ccc2I)c2ccccc21 (racemic) [(rac)-AM1241] | – | – | – | – | – | – | 3.66±0.03 | 5.23 ± 0.21 | Emax ± SEM GIRK hCB2R ([3]; normalized to CP55940): 59 ± 14%
7 | CN1CCCC[C@H]1Cn1cc(C(=O)c2cc([N+](=O)[O-])ccc2I)c2ccccc21 [(S)-AM1241] | 49 | 14 | 1.4 | 23 | 10 | < 25 | 3.64 | 5.6 ± 0.14 | Emax ± SEM GIRK hCB2R ([3]; normalized to CP55940): 68 ± 13%
8 | SR144528 | -21 | 41 | – | 31 | -5 | – | – | – | ABHD12 % inhibition [8]: < 25%
9 | Cc1ccc2c(c1)Cc1c(C(=O)NN3CCCCC3)nn(-c3ccc(Cl)cc3Cl)c1-2 [Gp-1a] | 33 | 30 | 1.1 | 86 | 30 | – | – | – | CB2R Selectivity GIRK ([3]; 10^(pEC50 CB2R-pEC50 CB1R)): 5 fold; pEC50 ± SEM GIRK hCB2R ([3]; antagonists in presence of CP55940): 5.99 ± 0.08; IC50 [8, 9]: 800 nM
10 | CCCCC/C=C\C/C=C\C/C=C\C/C=C\CCCC(=O)OC(CO)CO [2-AG, 2-arachidonoyl glycerol] | – | – | – | – | – | – | – | – | Emax [3, 10]: 100 ± 2%
11 | CN1CCCC[C@@H]1Cn1cc(C(=O)c2cc([N+](=O)[O-])ccc2I)c2ccccc21 [(R)-AM1241] | – | – | – | – | – | < 25 | 3.66 | < 5 | Emax ± SEM GIRK hCB2R ([3]; normalized to CP55940): 47 ± 13%
12 | Cc1c(C(=O)c2cccc3ccccc23)c2cccc3c2n1[C@H](CN1CCOCC1)CO3 [WIN55212-2] | 69 | 6 | – | 39 | 0 | < 50 | 3.67±0.03 | – | –
13 | CCCCC/C=C\C/C=C\C/C=C\C/C=C\CCCC(=O)NCCO [Anandamide, N-arachidonoylethanolamine] | – | – | – | – | – | – | – | – | Emax [3, 10]: 51 ± 5%
14 | COc1ccc(C(=O)c2c(C)n(CCN3CCOCC3)c3cc(I)ccc23)cc1 [AM630] | – | 9 | 1.3 | 99 | -5 | < 25 | 3.82 | 5.82 ± 0.08 | –
15 | Cc1c(C(=O)NN2CCCCC2)nn(-c2ccc(Cl)cc2Cl)c1-c1ccc(Cl)cc1 [SR141716A] | – | – | – | – | – | – | – | – | inhibition at 10 µM [6]: 4%; IC50 [8]: 6100 nM
16 | CCCCCCC(C)(C)c1ccc([C@@H]2C[C@H](O)CC[C@H]2CCCO)c(O)c1 [CP55940] | – | – | – | – | – | – | – | – | inhibition at 10 µM [6]: 22%; inhibition at 10 µM ([2]; 10 µM): 14%; inhibition at 10 µM ([4]; 10 µM): 85%; inhibition at 10 µM ([5]; 10 µM): 23%
